Measured values from BindingDB's records for doi:10.1016/s0960-894x(00)00465-0 (Boehringer Ingelheim Pharmaceuticals, 2001).
Non-standard residues stand in square brackets, D forms with d. Residues, ends and D or L forms follow the SMILES beside them. *: point of attachment. Hyp = O=C(O)[C@@H]1C[C@@H](O)CN1; Chg = N[C@H](C(=O)O)C1CCCCC1; Nva = CCC[C@H](N)C(=O)O; X1 = c1ccc2cc(C*)ccc2c1

Assay: Compound was evaluated for its inhibitory activity against porcine pancreatic elastase (PPE)

- IC50: > 300 µM
Structure (SMILES): CCC[C@H](NC(=O)[C@@H]1C[C@@H](OCc2ccc3ccccc3c2)CN1C(=O)[C@@H](NC(=O)[C@@H](NC(=O)[C@@H](CCC(=O)O)NC(=O)[C@H](CC(=O)O)NC(C)=O)C1CCCCC1)C(C)C)C(=O)O [(S)-2-{[(2S,4R)-1-((S)-2-{(S)-2-[(R)-2-((S)-2-Acetylamino-3-carboxy-propionylamino)-4-carboxy-butyrylamino]-2-cyclohexyl-acetylamino}-3-methyl-butyryl)-4-(naphthalen-2-ylmethoxy)-pyrrolidine-2-carbonyl]-amino}-pentanoic acid] (Ac-D[dE][Chg]V[Hyp](X1)[Nva]-OH)
